Reference: patent US7795278B2 (sanofi-aventis Deutschland GmbH, priority 2004, dated 2010)

Target: recombinantly expressed human PARP-1 enzyme (Homo sapiens, UniProt P09874)
Assay: PARP enzyme assay (half-maximum inhibitor concentration)
Assay type: biochemical
Details: DNA-activated PARP-1, 200 μM NAD, tritium-labeled NAD incorporation, room temperature, 1 hour, pH 8.0
Description: Pharmacological Investigations PARP Enzyme Assay
The half-maximum inhibitor concentration is determined by incubating the substances to be tested with the DNA-activated, recombinantly expressed and purified PARP-1 enzyme. Specifically, various concentrations of the test substance are incubated in 50 μl of reaction solution, which contains 50 mM Tris, 5 mM MgCl2, 1 mM DTT, 200 μM NAD, 0.1 mCi/ml tritium-labeled NAD, 0.1 mg/ml DNA, 0.1 mg/ml histones, 2 μg/ml recombinantly expressed human PARP-1 enzyme, pH=8.0, at room temperature for 1 hour. The reaction is stopped by adding 150 μl of 20% trichloroacetic acid, and the radiolabeled protein constituents are precipitated. After incubation on ice for 10 minutes, the labeled, insoluble constituents are separated off through a glass fiber filter and, after washing with 20% trichloroacetic acid three times, the radioactivity incorporated by the PARP-1 enzyme is measured by radioluminescence.
IC-50 values were determined in this way for the following compounds: […]

Chain of recombinantly expressed human PARP-1 enzyme (P09874 whole entry): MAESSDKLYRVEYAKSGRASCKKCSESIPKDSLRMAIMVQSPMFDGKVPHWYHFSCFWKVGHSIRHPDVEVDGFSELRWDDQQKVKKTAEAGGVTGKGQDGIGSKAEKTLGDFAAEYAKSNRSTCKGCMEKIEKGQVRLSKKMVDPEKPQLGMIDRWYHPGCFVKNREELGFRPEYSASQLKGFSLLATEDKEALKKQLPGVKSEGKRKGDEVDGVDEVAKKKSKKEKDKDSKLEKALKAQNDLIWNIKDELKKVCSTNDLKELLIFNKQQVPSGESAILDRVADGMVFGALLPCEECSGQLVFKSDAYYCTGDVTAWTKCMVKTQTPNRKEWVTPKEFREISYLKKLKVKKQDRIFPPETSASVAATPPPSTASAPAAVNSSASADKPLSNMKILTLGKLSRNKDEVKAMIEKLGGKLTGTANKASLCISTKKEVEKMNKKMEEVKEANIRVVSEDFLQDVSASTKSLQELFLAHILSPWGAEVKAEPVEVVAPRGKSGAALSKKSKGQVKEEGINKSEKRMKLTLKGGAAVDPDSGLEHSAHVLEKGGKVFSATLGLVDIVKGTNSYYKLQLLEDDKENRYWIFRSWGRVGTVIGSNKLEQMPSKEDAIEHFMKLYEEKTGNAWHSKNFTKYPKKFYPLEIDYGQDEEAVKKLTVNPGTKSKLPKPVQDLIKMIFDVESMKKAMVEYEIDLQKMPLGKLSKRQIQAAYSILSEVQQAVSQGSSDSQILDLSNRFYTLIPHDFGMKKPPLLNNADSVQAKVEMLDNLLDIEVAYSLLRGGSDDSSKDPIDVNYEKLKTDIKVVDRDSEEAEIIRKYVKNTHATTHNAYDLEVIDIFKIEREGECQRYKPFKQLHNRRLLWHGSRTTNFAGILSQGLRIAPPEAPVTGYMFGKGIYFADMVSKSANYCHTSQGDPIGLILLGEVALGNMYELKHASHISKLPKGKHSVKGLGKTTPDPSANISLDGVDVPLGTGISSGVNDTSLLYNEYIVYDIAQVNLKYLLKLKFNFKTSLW

| IC50 [nM] | Compound |
| --- | --- |
| 330 | Cc1[nH]c(=O)c2c(c1-c1ccc(CNCc3cnn(C)c3)o1)CCCC2 [Example 52, 3-methyl-4-(5-{[(1-methyl-1H-pyrazol-4-ylmethyl)amino]methyl}-furan-2-yl)-5,6,7,8-tetrahydro-2H-isoquinolin-1-one] |
| 2480 | COc1cccc(S(=O)(=O)NCc2ccc(-c3c[nH]c(=O)c4c3CCCC4)o2)c1 [Example 86, 3-methoxy-N-[5-(1-oxo-1,2,5,6,7,8-hexahydroisoquinolin-4-yl)furan-2-ylmethyl]benzenesulfonamide] |
| 240 | CCCCNCc1ccc(-c2c(C)[nH]c(=O)c3c2CCCC3)o1 [Example 53, 4-(5-butylaminomethylfuran-2-yl)-3-methyl-5,6,7,8-tetrahydro-2H-isoquinolin-1-one] |
| 6880 | Cc1nn(C)c(C)c1CNC(=O)c1cncc(-c2c[nH]c(=O)c3c2CCCC3)c1 [Example 35, 5-(1-oxo-1,2,5,6,7,8-hexahydroisoquinolin-4-yl)-N-(1,3,5-trimethyl-1H-pyrazol-4-ylmethyl)-nicotinamide] |
| 610 | O=c1[nH]cc(Nc2cccc(CO)c2)c2c1CCCC2 [Example 8, 4-(3-hydroxymethylphenyl-amino)-5,6,7,8-tetrahydro-2H-isoquinolin-1-one] |
| 150 | O=c1[nH]cc(-c2ccc(CNCc3ccccc3)o2)c2c1CCCC2 [Example 79, 4-[5-(benzylaminomethyl)furan-2-yl]-5,6,7,8-tetrahydro-2H-isoquinolin-1-one] |
| 540 | O=C(NCc1ccc(-c2c[nH]c(=O)c3c2CCCC3)o1)C(F)(F)F [Example 80, 2,2,2-trifluoro-N-[5-(1-oxo-1,2,5,6,7,8-hexahydroisoquinolin-4-yl)furan-2-ylmethyl]acetamide] |
| 2010 | O=C(NCCc1cccnc1)c1cccc(Nc2c[nH]c(=O)c3c2CCCC3)c1 [Example 23, 3-(1-Oxo-1,2,5,6,7,8-hexahydroisoquinolin-4-ylamino)-N-(2-pyridin-3-ylethyl)benzamide] |
| 790 | O=C(NCc1ccc(-c2c[nH]c(=O)c3c2CCCC3)o1)c1cccnc1 [Example 84, N-[5-(1-oxo-1,2,5,6,7,8-hexahydroisoquinolin-4-yl)furan-2-ylmethyl]nicotinamide] |
| 510 | CC(=O)Nc1ccc(CNCc2ccc(-c3c[nH]c(=O)c4c3CCCC4)o2)cc1 [Example 75, N-[4-({[5-(1-oxo-1,2,5,6,7,8-hexahydroisoquinolin-4-yl)furan-2-ylmethyl]amino}methyl)phenyl]-acetamide] |
| 1240 | 4-[5-({[4-(4-fluorophenyl)-piperazin-1-yl]-5,6,7,8-tetrahydro-2H-isoquinolin-1-one [Example 71] |
| 740 | Cc1[nH]c(=O)c2c(c1-c1cccnc1)CCCC2 [Example 19, 3-methyl-4-pyridin-3-yl-5,6,7,8-tetrahydro-2H-isoquinolin-1-one] |
| 3190 | CN(Cc1ccncc1)C(=O)c1cncc(-c2c[nH]c(=O)c3c2CCCC3)c1 [Example 38, N-methyl-5-(1-oxo-1,2,5,6,7,8-hexahydroisoquinolin-4-yl)-N-pyridin-4-ylmethylnicotinamide] |
| 720 | O=c1[nH]cc(-c2ccc(CN3CCCC3c3ccccn3)o2)c2c1CCCC2 (stereo not drawn) [Example 67, 4-[5-(2-pyridin-2-ylpyrrolidin-1-ylmethyl)furan-2-yl]-5,6,7,8-tetrahydro-2H-isoquinolin-1-one] |
| 420 | O=C(c1cncc(-c2c[nH]c(=O)c3c2CCCC3)c1)N1CCC(c2ccncc2)C1 (stereo not drawn) [Example 36, 4-[5-(3-pyridin-4-ylpyrrolidine-1-carbonyl)pyridin-3-yl]-5,6,7,8-tetrahydro-2H-isoquinolin-1-one] |
| 7700 | O=C(c1cncc(-c2c[nH]c(=O)c3c2CCCC3)c1)N1CCCC1 [Example 25, 4-[5-(pyrrolidine-1-carbonyl)-pyridin-3-yl]-5,6,7,8-tetrahydro-2H-isoquinolin-1-one] |
| 1700 | COc1cccc(CNC(=O)c2cncc(-c3c[nH]c(=O)c4c3CCCC4)c2)c1 [Example 45, N-(3-methoxybenzyl)-5-(1-oxo-1,2,5,6,7,8-hexahydroisoquinolin-4-yl)nicotinamide] |
| 3480 | Cc1cc(CNC(=O)c2cncc(-c3c[nH]c(=O)c4c3CCCC4)c2)no1 [Example 34, N-(5-methylisoxazol-3-ylmethyl)-5-(1-oxo-1,2,5,6,7,8-hexahydroisoquinolin-4-yl)nicotinamide] |
| 240 | O=c1[nH]cc(-c2ccc(CN3CCC(O)C3)o2)c2c1CCCC2 (stereo not drawn) [Example 63, 4-[5-(3-hydroxypyrrolidin-1-ylmethyl)furan-2-yl]-5,6,7,8-tetrahydro-2H-isoquinolin-1-one] |

| IC50 [nM] | Compound |
| --- | --- |
| 2540 | O=C(NCCc1ccccc1)c1cncc(-c2c[nH]c(=O)c3c2CCCC3)c1 [Example 27, 5-(1-oxo-1,2,5,6,7,8-hexahydroisoquinolin-4-yl)-N-phenethyl-nicotinamide] |
| 340 | O=c1[nH]cc(-c2ccc(CNCN3CCC(N4CCCC4)CC3)o2)c2c1CCCC2 [Example 64, 4-(5-{[(4-pyrrolidin-1-ylpiperidin-1-ylmethyl)amino]methyl}furan-2-yl)-5,6,7,8-tetrahydro-2H-isoquinolin-1-one] |
| 1430 | O=C1OCc2ccc(Nc3c[nH]c(=O)c4c3CCCC4)cc21 [Example 10] |
| 4070 | CC(=O)Nc1ccc(CNC(=O)c2cncc(-c3c[nH]c(=O)c4c3CCCC4)c2)cc1 [Example 37, N-(4-acetylaminobenzyl)-5-(1-oxo-1,2,5,6,7,8-hexahydroisoquinolin-4-yl)nicotinamide] |
| 1280 | CCCCNC(=O)c1cccc(Nc2c[nH]c(=O)c3c2CCCC3)c1 [Example 20, N-Butyl-3-(1-oxo-1,2,5,6,7,8-hexahydroisoquinolin-4-ylamino)benzamide] |
| 690 | CC(=O)c1cccc(Nc2c[nH]c(=O)c3c2CCCC3)c1 [Example 15, 4-(3-acetylphenylamino)-5,6,7,8-tetrahydro-2H-isoquinolin-1-one] |
| 3290 | COc1cccc(CNC(=O)c2cncc(-c3c[nH]c(=O)c4c3CCCC4)c2)c1OC [Example 47, N-(2,3-dimethoxybenzyl)-5-(1-oxo-1,2,5,6,7,8-hexahydroisoquinolin-4-yl)nicotinamide] |
| 800 | CS(=O)(=O)c1cccc(Nc2c[nH]c(=O)c3c2CCCC3)c1 [Example 6, 4-(3-methanesulfonylphenyl-amino)-5,6,7,8-tetrahydro-2H-isoquinolin-1-one] |
| 1180 | CN(Cc1ccc(-c2c[nH]c(=O)c3c2CCCC3)o1)Cc1nc2c(s1)CCCC2 [Example 66, 4-(5-{[methyl-(4,5,6,7-tetrahydro-benzothiazol-2-ylmethyl)amino]-methyl}furan-2-yl)-5,6,7,8-tetrahydro-2H-isoquinolin-1-one] |
| 180 | Cn1cc(CNCc2ccc(-c3c[nH]c(=O)c4c3CCCC4)o2)cn1 [Example 77, 4-(5-{[(1-methyl-1H-pyrazol-4-ylmethyl)amino]methyl}furan-2-yl)-5,6,7,8-tetrahydro-2H-isoquinolin-1-one] |
| 10600 | O=C(c1cccc(Nc2c[nH]c(=O)c3c2CCCC3)c1)N1CCCC1 [Example 21, 4-[3-(Pyrrolidin-1-carbonyl)phenylamino]-5,6,7,8-tetrahydro-2H-isoquinolin-1-one] |
| 270 | CNC(=O)c1cccc(Nc2c[nH]c(=O)c3c2CCCC3)c1 [Example 2, N-methyl-3-(1-oxo-1,2,5,6,7,8-hexahydroisoquinolin-4-ylamino)-benzamide] |
| 1630 | O=c1[nH]cc(-c2ccc(CNS(=O)(=O)c3ccc(Oc4ccccn4)cc3)o2)c2c1CCCC2 [Example 85, N-[5-(1-oxo-1,2,5,6,7,8-hexahydroisoquinolin-4-yl)furan-2-ylmethyl]-4-(pyridin-2-yloxy)benzenesulfonamide] |
| 440 | O=c1[nH]cc(-c2ccc(CN3CCSC3)o2)c2c1CCCC2 [Example 76, 4-(5-thiazolidin-3-ylmethylfuran-2-yl)-5,6,7,8-tetrahydro-2H-isoquinolin-1-one] |
| 770 | CN(Cc1cccc([N+](=O)[O-])c1)C(=O)c1cncc(-c2c[nH]c(=O)c3c2CCCC3)c1 [Example 32, N-methyl-N-(3-nitrobenzyl)-5-(1-oxo-1,2,5,6,7,8-hexahydroisoquinolin-4-yl)nicotinamide] |
| 310 | O=c1[nH]cc(-c2ccc(CNC3Cc4ccccc4C3)o2)c2c1CCCC2 [Example 70, 4-[5-(indan-2-ylaminomethyl)-furan-2-yl]-5,6,7,8-tetrahydro-2H-isoquinolin-1-one] |
| 3770 | CC(=O)Nc1ccc(S(=O)(=O)NCc2ccc(-c3c[nH]c(=O)c4c3CCCC4)o2)cc1 [Example 87, N-(4-{[5-(1-oxo-1,2,5,6,7,8-hexahydroisoquinolin-4-yl)furan-2-ylmethyl]sulfamoyl}phenyl)acetamide] |
| 2760 | Cn1ccnc1CN(Cc1ccccc1)Cc1ccc(-c2c[nH]c(=O)c3c2CCCC3)o1 [Example 69, 4-(5-{[benzyl(1-methyl-1H-imidazol-2-ylmethyl)amino]-methyl}furan-2-yl)-5,6,7,8-tetrahydro-2H-isoquinolin-1-one] |
| 590 | Cc1[nH]c(=O)c2c(c1-c1ccc(CNCc3ccccc3)o1)CCCC2 [Example 51, 4-[5-(benzylaminomethyl)furan-2-yl]-3-methyl-5,6,7,8-tetrahydro-2H-isoquinolin-1-one] |

| Compound | IC50 [nM] |
| --- | --- |
| 4-(6-morpholin-4-ylpyridin-3-yl-amino)-5,6,7,8-tetrahydro-2H-isoquinolin-1-one [Example 4] | 6350 |
